Measured values reported in ChEMBL document CHEMBL1130012 (J Med Chem, 1997).

How the values were obtained:
[1] = target: Muscarinic acetylcholine receptor M3 (Rattus norvegicus) (UniProt P08483); assay: Binding affinity towards Muscarinic acetylcholine receptor M3 was determined in rat pancreas
[2] = target: T1, Muscarinic acetylcholine receptor M2 (Rattus norvegicus, UniProt P10980); assay: Binding affinity towards rat Muscarinic acetylcholine receptor M2 was determined
T1 sequence (P10980 whole entry): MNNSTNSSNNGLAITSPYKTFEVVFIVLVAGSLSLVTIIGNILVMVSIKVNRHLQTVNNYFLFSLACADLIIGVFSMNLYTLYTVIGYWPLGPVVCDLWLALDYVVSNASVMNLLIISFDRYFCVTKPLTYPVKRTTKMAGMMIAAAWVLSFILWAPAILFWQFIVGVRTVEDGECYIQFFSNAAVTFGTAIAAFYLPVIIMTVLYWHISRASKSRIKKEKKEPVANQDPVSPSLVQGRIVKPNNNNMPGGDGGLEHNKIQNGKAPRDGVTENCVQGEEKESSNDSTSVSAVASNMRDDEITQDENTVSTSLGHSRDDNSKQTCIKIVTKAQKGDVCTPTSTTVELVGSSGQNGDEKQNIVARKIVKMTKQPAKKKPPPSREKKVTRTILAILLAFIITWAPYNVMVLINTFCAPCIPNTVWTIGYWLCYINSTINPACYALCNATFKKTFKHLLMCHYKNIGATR

[3] = target: T2, Muscarinic acetylcholine receptor M1 (Rattus norvegicus, UniProt P08482); assay: Binding affinity towards rat Muscarinic acetylcholine receptor M1 was determined
T2 sequence (P08482 whole entry): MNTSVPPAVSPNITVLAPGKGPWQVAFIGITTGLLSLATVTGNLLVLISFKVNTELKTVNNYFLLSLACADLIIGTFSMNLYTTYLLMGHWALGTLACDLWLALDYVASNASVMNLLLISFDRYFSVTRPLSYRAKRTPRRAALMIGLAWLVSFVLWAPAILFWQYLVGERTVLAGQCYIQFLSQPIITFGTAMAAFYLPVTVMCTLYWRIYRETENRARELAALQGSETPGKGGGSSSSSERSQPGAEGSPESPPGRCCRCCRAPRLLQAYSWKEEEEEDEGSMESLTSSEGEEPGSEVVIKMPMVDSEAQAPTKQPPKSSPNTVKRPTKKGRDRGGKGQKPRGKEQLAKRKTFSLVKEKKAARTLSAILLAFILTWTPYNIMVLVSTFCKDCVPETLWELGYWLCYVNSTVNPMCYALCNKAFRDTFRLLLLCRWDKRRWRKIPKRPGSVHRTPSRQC

Chain of Muscarinic acetylcholine receptor M3 (Rattus norvegicus) (P08483 whole entry, looked up): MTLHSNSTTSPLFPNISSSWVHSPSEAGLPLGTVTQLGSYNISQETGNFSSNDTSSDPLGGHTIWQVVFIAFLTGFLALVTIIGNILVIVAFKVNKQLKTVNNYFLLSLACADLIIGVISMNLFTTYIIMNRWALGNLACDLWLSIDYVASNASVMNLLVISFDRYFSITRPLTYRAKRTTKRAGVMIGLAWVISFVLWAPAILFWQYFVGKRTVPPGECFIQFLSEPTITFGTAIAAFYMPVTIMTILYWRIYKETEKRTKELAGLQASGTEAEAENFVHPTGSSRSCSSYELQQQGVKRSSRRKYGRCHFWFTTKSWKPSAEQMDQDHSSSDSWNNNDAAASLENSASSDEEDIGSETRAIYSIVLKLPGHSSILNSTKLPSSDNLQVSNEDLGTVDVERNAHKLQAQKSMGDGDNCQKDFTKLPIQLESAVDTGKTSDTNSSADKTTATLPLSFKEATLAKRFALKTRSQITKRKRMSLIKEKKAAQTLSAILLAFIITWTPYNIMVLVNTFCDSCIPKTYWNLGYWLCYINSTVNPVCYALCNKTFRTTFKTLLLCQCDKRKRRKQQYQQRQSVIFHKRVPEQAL

## C[N+]12CCC(CC1)[C@@H](OC(=O)C(O)(c1ccccc1)c1ccccc1)C2
[1]
  Ki: 0.65 nM
[2]
  Ki: 0.43 nM
[3]
  Ki: 0.13 nM
